In brackets after ≈: the same amount, converted by molar mass. Bridge positions count the residues as written; N and C are the ends. Square brackets hold non-standard residues; d marks the D form. Peptide text beside a SMILES is read from it. * marks the point of attachment. Myristoyl = CCCCCCCCCCCCCC(=O)*; X2 = NC[C@H](Cc1ccc(O)cc1)N*; dOrn = NCCC[C@@H](N)C(=O)O; X1 = CC(C)[C@H](O)CC(=O)*; Orn = NCCC[C@H](N)C(=O)O; βAla = NCCC(=O)O
Legend:
[1] = test system: Candida albicans ATCC 64550; type: cell-based; settings: ATCC 64550, 16 h
Description: (§1) All MIC assays were performed two independent times (n = 2) in 96‐well plates using a broth micro‐dilution method. The lowest concentration of that inhibited visible microbial growth was recorded as the MIC value.
(§2) For fungal strains, overnight cultures were diluted 2000‐fold in YPD broth. 100 µL of diluted cells was mixed with 100 µL of YPD broth containing each peptide ranging from […] 64 to 0.125 µg mL^−1 at 2‐fold serial dilutions.

[2] = test system: Salmonella enterica ATCC 14028; assay: microbe, parasite or virus in culture; type: cell-based; settings: ATCC 14028, 16 h
Description: as §1
(§3) For most of bacterial strains, overnight cultures were diluted 5000‐fold in LB broth. For E. faecium and S. aureus, overnight cultures were diluted 1000‐ and 10000‐fold in LB broth, respectively. 100 µL of diluted cells was mixed with 100 µL of LB broth containing each peptide ranging from 64 to 0.125 µg mL^−1 at 2‐fold serial dilutions.

[3] = test system: Acinetobacter baumannii ATCC 17978; assay: microbe, parasite or virus in culture; type: cell-based; settings: ATCC 17978, 16 h
Description: as §1, §3

Enterococcus faecalis 28 = assay: microbe, parasite or virus in culture; type: cell-based; settings: 28, 16 h
Description: as §1, §3

[4] = test system: Acinetobacter baumannii P53; assay: microbe, parasite or virus in culture; type: cell-based; settings: Table S11; LB broth, 37 °C, 16 h, n = 2
Description: as §1, §3

[5] = test system: Vibrio alginolyticus XSBZ14; assay: microbe, parasite or virus in culture; type: cell-based; settings: 16 h
Description: as §1, §3

[6] = test system: Pseudomonas aeruginosa ATCC 9027; assay: microbe, parasite or virus in culture; type: cell-based; settings: ATCC 9027, 16 h
Description: as §1, §3

[7] = test system: Streptococcus pyogenes ATCC 19615; assay: microbe, parasite or virus in culture; type: cell-based; settings: for MIC Streptococcus pyogenes ATCC 19615: Table S11, LB broth, 37 °C, 16 h, n = 2
Description: as §1, §3

[8] = test system: Staphylococcus aureus USA300; assay: microbe, parasite or virus in culture; type: cell-based; settings: for MIC Staphylococcus aureus USA300: Table S11, LB broth, 37 °C, 16 h, n = 2
Description: as §1, §3

Enterococcus faecalis 26 = assay: microbe, parasite or virus in culture; type: cell-based; settings: 26, 16 h
Description: as §1, §3

[9] = test system: Klebsiella pneumoniae CRKP HS11286; assay: microbe, parasite or virus in culture; type: cell-based; settings: CRKP HS11286, 16 h
Description: as §1, §3

[10] = test system: Salmonella typhimurium LXX; assay: microbe, parasite or virus in culture; type: cell-based; settings: murium LXX, 16 h
Description: as §1, §3

[11] = test system: Klebsiella pneumoniae CRKP 5452; assay: microbe, parasite or virus in culture; type: cell-based; settings: for MIC Klebsiella pneumoniae CRKP 5452: Table S11, LB broth, 37 °C, 16 h, n = 2
Description: as §1, §3

[12] = test system: Enterococcus faecium 35682; assay: microbe, parasite or virus in culture; type: cell-based; settings: 35682, 16 h
Description: as §1, §3

[13] = test system: Streptococcus mutans ATCC 25175; assay: microbe, parasite or virus in culture; type: cell-based; settings: ATCC 25175, 16 h
Description: as §1, §3

[14] = test system: Klebsiella pneumoniae ATCC 13883; assay: microbe, parasite or virus in culture; type: cell-based; settings: ATCC 13883, 16 h
Description: as §1, §3

[15] = test system: Klebsiella pneumoniae NCTC 5056; assay: microbe, parasite or virus in culture; type: cell-based; settings: NCTC 5056, 16 h
Description: as §1, §3

[16] = test system: Pseudomonas aeruginosa PAO1; assay: microbe, parasite or virus in culture; type: cell-based; settings: PAO1, 16 h
Description: as §1, §3

[17] = test system: Acinetobacter baumannii ATCC 19606; assay: microbe, parasite or virus in culture; type: cell-based; settings: ATCC 19606, 16 h
Description: as §1, §3

[18] = test system: Enterococcus faecalis ATCC 29212; assay: microbe, parasite or virus in culture; type: cell-based; settings: ATCC 29212, 16 h
Description: as §1, §3

[19] = test system: Staphylococcus aureus ATCC 25923; assay: microbe, parasite or virus in culture; type: cell-based; settings: ATCC 25923, 16 h
Description: as §1, §3

[20] = test system: Acinetobacter baumannii 1104008; assay: microbe, parasite or virus in culture; type: cell-based; settings: for MIC Acinetobacter baumannii 1104008: Table S11, LB broth, 37 °C, 16 h, n = 2
Description: as §1, §3

[21] = test system: Staphylococcus aureus Newman; assay: microbe, parasite or virus in culture; type: cell-based; settings: Newman, 16 h
Description: as §1, §3

[22] = test system: Staphylococcus aureus ATCC 6538; assay: microbe, parasite or virus in culture; type: cell-based; settings: ATCC 6538, 16 h
Description: as §1, §3

[23] = test system: Candida albicans ATCC 10231; assay: MIC assay (YPD broth); type: cell-based; settings: for MIC Candida albicans ATCC 10231: Table S11, YPD broth, 30 °C, 16 h, n = 2
Description: as §1, §2

Shigella Castellani LXX = assay: MIC assay (broth micro-dilution); type: cell-based; settings: Table S11; LB broth, 37 °C, 16 h, n = 2
Description: as §1, §3

B. subtilis ATCC 23857 = assay: MIC assay (broth micro-dilution); type: cell-based; settings: Table S11; LB broth, 37 °C, 16 h, n = 2
Description: as §1, §3

[24] = test system: four Gram-negative bacteria, four Gram-positive bacteria, and one fungal pathogen; assay: Initial antimicrobial assay of 17 synAQUs; type: cell-based; settings: MIC up to 64 µg mL^−1, Figure 3a
Description: as §1, §3, §2

HeLa cells = assay: Cytotoxicity assay (CCK-8); type: cell-based, human; settings: 48 h
Description: The cytotoxicity of each synAQU peptide was assessed using a cell counting kit‐8 (CCK‐8) assay. HeLa cells were first seeded in a 96‐well flat‐bottom microtiter plate with a density of ∼5000 cells per well and incubated in the DMEM medium supplemented with 10% FBS at 37 °C with 5% CO2 for 24 h. […] All cytotoxicity experiments were done in triplicate (n = 3) and repeated two independent times (n = 2).

Gram negative bacteria = test system: Gram negative bacteria; parameters: method as in 2 sources, one per row (each row's own in cited_ref): ref 27 (a number printed in a supplementary file, which may have a reference list of its own: not looked up in the article's list) ||| ref 26 = [26]; PMID 24281661; doi:10.1038/ja.2013.121; 26 S. Kozuma , Y. Hirota‐Takahata , D. Fukuda , N. Kuraya , M. Nakajima , O , A , J. Antibiot. (Tokyo) 2014 , 67 , 237 . 24281661 10.1038/ja.2013.121; settings: in words; cited from earlier work
Source text: All 17 synAQUs were initially assayed for antimicrobial activity against four Gram‐negative bacteria, four Gram‐positive bacteria, and one fungal pathogen.

Escherichia coli DH5α = assay: MIC assay (broth micro-dilution); type: cell-based; settings: Table S11; LB broth, 37 °C, 16 h, n = 2
Description: as §1, §3

CCCCCCCCCCCCCC(=O)N[C@@H](CCCN)C(=O)N[C@H](Cc1ccc(O)cc1)C(=O)N[C@@H](C(=O)N[C@@H](C(=O)N[C@H](CCCN)C(=O)N[C@@H](CCCN)C(=O)N[C@@H](C(=O)N[C@H](C(=O)N[C@@H](CC(C)C)C(=O)N[C@H](CCCN)C(=O)N[C@H](C(=O)N[C@@H](C)C(=O)O)[C@@H](C)O)[C@@H](C)CC)C(C)C)[C@H](C)O)C(C)C [synAQU6-L] (Myristoyl-[Orn][dY][dV][dT][dOrn][Orn][dV]IL[dOrn]TA-OH)
MIC Candida albicans ATCC 64550 [1]: > 64 µg/mL
MIC Salmonella enterica ATCC 14028 [2]: > 64 µg/mL
MIC Acinetobacter baumannii ATCC 17978 [3]: 32 µg/mL (≈ 20.7 µM)
MIC Enterococcus faecalis 28 (Enterococcus faecalis 28): > 64 µg/mL
MIC Acinetobacter baumannii P53 [4]: > 64 µg/mL
MIC Vibrio alginolyticus XSBZ14 [5]: > 64 µg/mL
MIC Pseudomonas aeruginosa ATCC 9027 [6]: 32 µg/mL (≈ 20.7 µM)
MIC Streptococcus pyogenes ATCC 19615 [7]: 2 µg/mL (≈ 1.29 µM)
MIC Staphylococcus aureus USA300 [8]: > 64 µg/mL
MIC Enterococcus faecalis 26 (Enterococcus faecalis 26): 4 µg/mL (≈ 2.59 µM)
MIC Klebsiella pneumoniae CRKP HS11286 [9]: > 64 µg/mL
MIC Salmonella typhimurium LXX [10]: > 64 µg/mL
MIC Klebsiella pneumoniae CRKP 5452 [11]: > 64 µg/mL
MIC Enterococcus faecium 35682 [12]: > 64 µg/mL
MIC Streptococcus mutans ATCC 25175 [13]: 4 µg/mL (≈ 2.59 µM)
MIC Klebsiella pneumoniae ATCC 13883 [14]: > 64 µg/mL
MIC Klebsiella pneumoniae NCTC 5056 [15]: > 64 µg/mL
MIC Pseudomonas aeruginosa PAO1 [16]: > 64 µg/mL
MIC Acinetobacter baumannii ATCC 19606 [17]: > 64 µg/mL
MIC Enterococcus faecalis ATCC 29212 [18]: > 64 µg/mL
MIC Staphylococcus aureus ATCC 25923 [19]: > 64 µg/mL
MIC Acinetobacter baumannii 1104008 [20]: > 64 µg/mL
MIC Staphylococcus aureus Newman [21]: > 64 µg/mL
MIC Staphylococcus aureus ATCC 6538 [22]: 32 µg/mL (≈ 20.7 µM)
MIC Candida albicans ATCC 10231 [23]: > 64 µg/mL
MIC Shigella Castellani LXX (Shigella Castellani LXX): > 64 µg/mL
MIC Bacllussubtilis ATCC 23857 (B. subtilis ATCC 23857): 8 µg/mL (≈ 5.17 µM)

CCCCCCCCCCCCCC(=O)N[C@@H](CCCCN)C(=O)N[C@@H](CCCNC(=N)N)C(=O)N[C@@H](CC(C)C)C(=O)N[C@@H](C)C(=O)N[C@@H](CC(C)C)C(=O)N[C@@H]1C(=O)N[C@@H](CC(=O)O)C(=O)N[C@@H](CC(=O)O)C(=O)N[C@@H](C(C)C)C(=O)N[C@@H](CC(N)=O)C(=O)N[C@@H](C(C)C)C(=O)N[C@H](Cc2ccccc2)C(=O)N[C@@H](CC(N)=O)C(=O)O[C@@H]1C [synAQU7-C6] (Myristoyl-KRLALTDDVNV[dF]N; ester 6-C)
activity against all nine tested strains [24]: not active
MIC (μg/mL) Hela (HeLa cells): > 64 µg/mL
MIC (μg/mL) S. pyogenes ATCC 19615 ([7]; ATCC 19615, 16 h): > 64 µg/mL
MIC (μg/mL) S. aureus USA300 ([8]; USA300, 16 h): > 64 µg/mL
MIC (μg/mL) K. pneumoniae CRKP 5452 ([11]; CRKP 5452, 16 h): > 64 µg/mL
MIC (μg/mL) A. baumannii 1104008 ([20]; 1104008, 16 h): > 64 µg/mL
MIC (μg/mL) C. albicans ATCC 10231 ([23]; ATCC 10231, 16 h): > 64 µg/mL

pedopeptin B
anti-Gram-negative activity (Gram negative bacteria): potent anti‐Gram‐negative activity

CC[C@H](C)[C@H](NC(=O)[C@@H](NC(=O)[C@@H](C)NC(=O)[C@H](C)NC(=O)[C@@H](NC(=O)C[C@@H](O)C(C)C)C(C)C)[C@@H](C)CC)C(=O)NCCC(=O)N[C@@H](CC(C)C)C(=O)N[C@H](C)C(=O)N[C@H](C(=O)N[C@H](CN)Cc1ccc(O)cc1)[C@@H](C)CC [synAQU4-L] (X1-VA[dA]II[βAla]L[dA]I-X2)
MIC Candida albicans ATCC 64550 [1]: > 64 µg/mL
MIC Salmonella enterica ATCC 14028 [2]: > 64 µg/mL
MIC Acinetobacter baumannii ATCC 17978 [3]: > 64 µg/mL
MIC Enterococcus faecalis 28 (Enterococcus faecalis 28): > 64 µg/mL
MIC Acinetobacter baumannii P53 [4]: > 64 µg/mL
MIC Vibrio alginolyticus XSBZ14 [5]: > 64 µg/mL
MIC Pseudomonas aeruginosa ATCC 9027 [6]: > 64 µg/mL
MIC Streptococcus pyogenes ATCC 19615 [7]: 4 µg/mL (≈ 3.58 µM)
MIC Staphylococcus aureus USA300 [8]: > 64 µg/mL
MIC Enterococcus faecalis 26 (Enterococcus faecalis 26): > 64 µg/mL
MIC Klebsiella pneumoniae CRKP HS11286 [9]: > 64 µg/mL
MIC Salmonella typhimurium LXX [10]: > 64 µg/mL
MIC Klebsiella pneumoniae CRKP 5452 [11]: > 64 µg/mL
MIC Enterococcus faecium 35682 [12]: > 64 µg/mL
MIC Streptococcus mutans ATCC 25175 [13]: 16 µg/mL (≈ 14.3 µM)
MIC Klebsiella pneumoniae ATCC 13883 [14]: > 64 µg/mL
MIC Klebsiella pneumoniae NCTC 5056 [15]: > 64 µg/mL
MIC Pseudomonas aeruginosa PAO1 [16]: > 64 µg/mL
MIC Acinetobacter baumannii ATCC 19606 [17]: > 64 µg/mL
MIC Enterococcus faecalis ATCC 29212 [18]: > 64 µg/mL
MIC Staphylococcus aureus ATCC 25923 [19]: > 64 µg/mL
MIC Acinetobacter baumannii 1104008 [20]: > 64 µg/mL
MIC Staphylococcus aureus Newman [21]: > 64 µg/mL
MIC Staphylococcus aureus ATCC 6538 [22]: > 64 µg/mL
MIC Candida albicans ATCC 10231 [23]: > 64 µg/mL
MIC Shigella Castellani LXX (Shigella Castellani LXX): > 64 µg/mL
MIC Escherichia coli DH5α (Escherichia coli DH5α): > 64 µg/mL
MIC Bacllussubtilis ATCC 23857 (B. subtilis ATCC 23857): > 64 µg/mL
